Results taken from patent publication US20140243292A1, “SUBSITUTED 2-(CHROMAN-6-YLOXYL)-THIAZOLES AND THEIR USE AS PHARMACEUTICALS” (Sanofi, priority 2011, published 2014).

Experiments:
[1] = biological target: T1, human NCX1 (Homo sapiens, UniProt P32418); test: NCX1 inhibition, forward mode (Ca2+ efflux out of cells), FLIPR calcium assay; format: cell-based; details: CHO cells stably expressing human NCX1, read-out: NCX1fw IC50
T1 construct: expressed in transfected cells
Text: The sodium/calcium exchanger NCX1 can transport calcium ions and sodium ions through the cell membrane. The transport is an exchange of Ca^2+ and Na^+ in two directions depending on membrane potential and ion gradients. At the first direction, named “forward mode” or “calcium export mode”, Ca^2+ is transported out of the cell and Na^+ is transported into the cell. At the other direction, named “reverse mode” or “calcium import mode”, the transport directions are vice versa. The effect of the compounds of the invention on NCX1 was determined in CHO cells stably expressing human NCX1 (gene symbol SLC8A1; cf. WO 2009/115238). The assay is based on the monitoring of intracellular Ca^2+ concentrations using a calcium-sensitive fluorescence dye which is detected by means of a FLIPR device (Fluorimetric Imaging Plate Reader, Molecular Devices).
The assay is based on the monitoring of intracellular Ca^2+ concentrations using the PBX Calcium Assay Kit from BD (Becton, Dickinson and Company) with calcium indicator dye 51-9000177BKa (BD, 640177). CHO cells expressing NCX1 were loaded with the dye, and after a preincubation period with the test compound, Ionomycin (Calbiochem, 407950) was added. Ionomycin is an ionophor for Ca^2+ ions mediating an increase of intracellular Ca^2+ ions. Consequently, intracellular Ca^2+ ions are exchanged against extracellular Na^+ ions (Ca^2+ efflux, forward mode). The decrease of intracellular Ca^2+ ions was detected by measuring the fluorescence of the calcium indicator dye at a wavelength of 520 nm by a FLIPR device.
Briefly, similarly as for the reverse mode, for the forward mode transport assay 18000 cells per well were seeded into a 96 well microplate (Corning COSTAR 3904) and incubated overnight in culture medium (cf. above). A total volume of 100 μl medium per well was used. For the preparation of the FLIPR assay, the culture medium was removed from the plates and 100 μl of assay buffer (133.8 mM NaCl (Sigma, S5886); 4.7 mM KCl (Sigma, P3911); 1.25 mM MgCl2 (Merck, 1.05833.0250); 3.5 mM CaCl2(Merck, 1.02083.0250); 5 mM glucose (Sigma, G7021); 10 mM Hepes (Sigma, H4034); pH 7.4)) were added to each well in a washing step. Assay buffer was removed, and 100 μl of a solution of the test compound in assay buffer in different concentrations were added into the wells. Further, 100 μl of dye solution (0.09% (v/v) calcium indicator dye, 9.1% (v/v) signal enhancer (from PBX Calcium Assay Kit); in assay buffer) were added into each well. The plates were incubated in the dark at room temperature for 60 min. Meanwhile a 10 μM solution of Ionomycin in assay buffer (additionally containing 0.05% fetal calf serum (cf. above); 4° C.) was prepared and stored in the wells of a 96 well microplate (96 well microplate, polypropylene, U-shape (Greiner Bio-One, 650201)). The fluorescence monitoring was performed at 60 measuring points with measurement intervals of 2 sec. After the fifth measuring point, 50 μl of the Ionomycin solution were added to each well of the assay plate to give a final Ionomycin concentration of 2 μM. For the determination of the IC50 values the minimal fluorescence value was subtracted from the maximal fluorescence value for the fifteenth to fifty-fifth measuring points. The calculation of the IC50 values via the percentage inhibitions of Ca^2+ efflux out of cells (forward mode) effected by the test compound was performed in Biost@t Speed 2.0. “NCX1fw IC50” in Table 2 means the IC50 value for inhibition of NCX1 in forward mode (in μM (micromol/liter)).

[2] = biological target: T1, human NCX1; test: NCX1 inhibition, reverse mode (Ca2+ influx into cells), FLIPR Fluo-4 assay; format: cell-based; details: inhibition of NCX1 in reverse mode (Ca2+ influx into cells); read-out: NCX1rv IC50
Summary of the method: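 Max−min Fluo-4 fluorescence (520 nm, FLIPR, 240 points at 2 s) after 20 µM final gramicidin, which drives Na+ loading and reverse-mode Ca2+ entry, gave % inhibition and IC50. Test compound was preincubated 45 min at 16 °C with Fluo-4-loaded CHO cells stably expressing human NCX1, in pH 7.4 buffer containing 3.5 mM CaCl2 and probenecid.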

| Compound | IC50 [1] | IC50 [2] |
| --- | --- | --- |
| Cc1ccccc1C1CCc2cc(Oc3ncc(C(=O)NCCO)s3)ccc2O1 (stereo not shown) [Example 299, 2-(2-o-Tolyl-chroman-6-yloxy)-thiazole-5-carboxylic acid (2-hydroxy-ethyl)-amide] | 600 nM | 400 nM |
| Cc1ccccc1C1CCc2cc(Oc3ncc(CNC(=O)c4ccno4)s3)ccc2O1 (stereo not shown) [Example 329, Isoxazole-5-carboxylic acid [2-(2-o-tolyl-chroman-6-yloxy)-thiazol-5-ylmethyl]-amide] | 2500 nM | 600 nM |
